The test system of one test is Ehrlich ascites tumour. The settings on record: cited from earlier work.
Another test has as its system OVCAR3. The experiment in a line: modified propidium iodide cytotoxicity assay, ovarian tumour cell line. The class given is cell-based, human. The settings on record: Ovarian tumour cell line OVCAR3, 4 days of incubation. As for the experimental part:
(§1) Various human tumor cells were grown at 37° C. in a humidified atmosphere (95% air, 5% CO2) in monolayer cultures in RPMI 1640 medium with phenol red (Life Technologies, Karlsruhe, Germany) supplemented with 10% fetal calf serum. Cells were trypsinized and maintained weekly.
(§2) A modified propidium iodide assay (based on W. A. Dengler et. al, Anti-Cancer Drugs, 6, pp. 522-532 (1995)) was used to examine the antiproliferative activity of the study compounds. Briefly, cells will be harvested from exponential phase cultures growing in RPMI 1640 medium supplemented with 10% fetal calf serum by trypsination, counted and plated in 96 well flat-bottomed microtiter plates (140 μl cell suspension, 8×10^4 cells/ml). […] After thawing of the plates, fluorescence was measured using a Millipore Cytofluor 2350-microplate reader (excitation 530 nm, emission 620 nm) in order to quantify the total cell number. […]
(§3) Growth inhibition is expressed as Treated/Control×100 (or T/C %). IC50 and IC70 values were determined by plotting compound concentration versus cell number. Mean IC50 and IC70 values were calculated according to the formula: [formula]
(§4) With x=specific tumor cell line and n=total number of cell lines studied. If IC50 or IC70 could not be determined within the examined dose range, the lowest or highest concentration studied was used for the calculation.

For the next test, the system named is PC3. Kind of test: modified propidium iodide cytotoxicity assay, prostate tumour cell line. It counts as cell-based, human. The settings on record: Prostate tumour cell line PC3, 4 days of incubation. As for the experimental part: as §1, §2, §3, §4
In a further test the test system is RXF486L. Kind of test: modified propidium iodide cytotoxicity assay, renal tumour cell line. The class given is cell-based, human. The settings on record: 4 days of incubation. As for the experimental part:
as §1, §2, §3, §4

In another test the test system is promyelocytic leukaemia. Kind of test: modified propidium iodide cytotoxicity assay, promyelocytic leukaemia (comparison). The class given is cell-based, human. As for the experimental part:
as §1, §2, §3, §4

The next test has as its system GXF251L. The experiment in a line: modified propidium iodide cytotoxicity assay, gastric tumour cell line. The class given is cell-based, human. The settings on record: 4 days of incubation. As for the experimental part: as §1, §2, §3, §4
The subject of another test is DLD1. Kind of test: modified propidium iodide cytotoxicity assay, colon tumour cell line. The settings on record: Colon tumour cell line DLD1, 4 days of incubation. The class given is cell-based, human. As for the experimental part: as §1, §2, §3, §4
Another test relates to MXAF401NL. Kind of test: modified propidium iodide cytotoxicity assay, mammary tumour cell line. It counts as cell-based, human. The settings on record: 4 days of incubation. As for the experimental part:
as §1, §2, §3, §4

As for Potassium arsenite, in the test on Ehrlich ascites tumour, the “effect on tumour growth” value is on record as “affected only the growth of Ehrlich ascites tumour”.

With “salt of meta-arsenite (AsO2^−) [meta-arsenite compound]”, the IC70 in the test on OVCAR3 is 3.02 µg/mL; in the test on PC3 it was 0.85 µg/mL; in the test with RXF486L it was 0.63 µg/mL; in the test on promyelocytic leukaemia (promyelocytic leukaemia, comparison), 6.82 µg/mL; in the test on GXF251L, 3.08 µg/mL; in the test on DLD1, 0.48 µg/mL. In addition, the IC70 with MXAF401NL came out at 0.32 µg/mL. Moreover, in the test with promyelocytic leukaemia (ratio of IC70 values, solid tumour cells versus promyelocytic leukaemia), the “sensitivity of the Table I tumour cells relative to promyelocytic leukaemia” value was 2 to 20 times.

The values above are taken from patent US20050106262A1, “Pharmaceutical composition comprising arsenite for the treatment of malignancy” (Korea Microbiological Laboratories, Ltd., priority 2002, published 2005).
